Data set [1] has as its system Plasmodium falciparum. Nature of the data set: Antimalarial activity against erythrocytic stage of chloroquine-sensitive Plasmodium falciparum 3D7 measured after 3 days by HRP2-ELISA analysis. The class given is functional, organism-based. As to conditions: 3D7, 72 h. In general terms: In an ELISA, binding on a coated surface is turned into a signal by an enzyme label.

Data set [2] deals with Plasmodium falciparum. Nature of the data set: Antimalarial activity against erythrocytic stage of chloroquine-resistant Plasmodium falciparum Dd2 measured after 3 days by HRP2-ELISA analysis. The class given is functional, organism-based. The settings on record: Dd2, 72 h.
Data set [3] relates to Plasmodium falciparum. Nature of the data set: Resistance index, ratio of IC50 for antiplasmodial activity against chloroquine-resistant Plasmodium falciparum Dd2 to IC50 for antiplasmodial activity against chloroquine-sensitive Plasmodium falciparum 3D7. The data set is classed as functional.
The subject of the next data set is HepG2. Nature of the data set: Cytotoxicity against human HepG2 cells assessed as reduction in cell viability incubated for 72 hrs by MTT assay. The class given is functional, cell-based. The settings on record: HepG2, 72 h. Background: Tetrazolium dyes change colour on reduction, which living cells bring about.
Data set [4] in a line: Selectivity index, ratio of IC50 for cytotoxicity against human HepG2 cells to IC50 for erythrocytic stage of chloroquine-sensitive Plasmodium falciparum 3D7. The class given is toxicity, cell-based. The settings on record: read-out: Ratio IC50.
Data set [5] relates to Plasmodium berghei. Nature of the data set: Antiplasmodial activity against luciferase-expressing Plasmodium berghei infected in human Huh-7 cells assessed as reduction in parasite load at 1 to 10 uM preincubated with cells for 1 hr followed by parasite infection and measured after 46 hrs by bioluminescence assay. The class given is functional, organism-based. As to conditions: dose 1-10 µM, time 47.0 hrs.

Data set [6] concerns Plasmodium berghei. Nature of the data set: Antiplasmodial activity against luciferase-expressing Plasmodium berghei infected in human Huh-7 cells assessed as reduction in parasite load preincubated with cells for 1 hr followed by parasite infection and measured after 46 hrs by bioluminescence assay. The class given is functional, organism-based.

From ChEMBL document CHEMBL5365475, “Design, synthesis and antiplasmodial evaluation of new amide-, carbamate-, and ureido-type harmicines” (Bioorg Med Chem, 2023) come the findings set out here.

In general, IC50 refers to the concentration that gives 50% inhibition.

Activity calls are given as the source filed them. No cut-off for these calls is given here. Some results are limits rather than exact numbers.

In the case of `COc1ccc2c3ccnc(C)c3n(CCNC(=O)OC/C=C/c3cc(C(F)(F)F)cc(C(F)(F)F)c3)c2c1`, the IC50 in the data set with Plasmodium falciparum [1] was determined as 0.65 µM; in the data set on Plasmodium falciparum [2], 2.63 µM; in the data set with HepG2 it was 7.19 µM. Also, the Ratio IC50 with Plasmodium falciparum [3] came to 4.05. Moreover, in data set [4], the selectivity ratio was 21.8.

For the compound `COc1cc(NC(C)CCCN)c2ncccc2c1` (configuration not stated), the result in the data set with Plasmodium berghei [5] was Active.

Turning to `COc1ccc2c(c1)[nH]c1c(C)nccc12` [HARMINE], the figures for the IC50 in the data set on Plasmodium falciparum [2] and with HepG2 were above 27.7 µM and above 250 µM, respectively. Moreover, in the data set on Plasmodium falciparum [3], the Ratio IC50 was above 3.36. The selectivity ratio in data set [4] amounted to 30.

For the compound `COc1ccc2c3ccnc(C)c3n(CCNC(=O)OC/C=C/c3cccc(Cl)c3)c2c1`, the IC50 worked out at 0.97 µM with Plasmodium falciparum [1], 1.19 µM in the data set with Plasmodium falciparum [2] and 8.52 µM in the data set on HepG2. Moreover, the Ratio IC50 with Plasmodium falciparum [3] worked out at 1.23. In addition, the selectivity ratio in data set [4] is 8.78. In addition, the outcome in the data set with Plasmodium berghei [5] was Active.

As to `COc1ccc2c3ccnc(C)c3n(CCNC(=O)/C=C/c3ccccc3Cl)c2c1`, the IC50 with Plasmodium falciparum [1] came out at 0.32 µM; in the data set with Plasmodium falciparum [2], 0.5 µM; in the data set on HepG2, 7.19 µM. Besides, the Ratio IC50 in the data set on Plasmodium falciparum [3] amounted to 1.56. For the same compound, the selectivity ratio in data set [4] was found to be 21.8. In the data set with Plasmodium berghei [5], the outcome was Active.

For the compound `COc1ccc2c3ccnc(C)c3n(CCNC(=O)OC/C=C/c3ccccc3)c2c1`, the IC50 amounted to 0.55 µM in the data set on Plasmodium falciparum [1], 1.37 µM in the data set with Plasmodium falciparum [2], 7.21 µM with HepG2 and 3.38 µM in the data set on Plasmodium berghei [6]. The Ratio IC50 with Plasmodium falciparum [3] came to 2.49. In data set [4], the selectivity ratio was 18.5. Also, the outcome with Plasmodium berghei [5] was Active.

For `COc1ccc2c3ccnc(C)c3n(CCNC(=O)/C=C/c3ccc([N+](=O)[O-])cc3)c2c1`, the IC50 with Plasmodium falciparum [1] came out at 1.36 µM; with Plasmodium falciparum [2], 2.05 µM; with HepG2, 17.5 µM. The Ratio IC50 in the data set with Plasmodium falciparum [3] was found to be 1.51. For the same compound, the selectivity ratio in data set [4] came out at 31.8. In addition, the result in the data set on Plasmodium berghei [5] was Active.

`COc1ccc2c3ccnc(C)c3n(CCNC(=O)OC/C=C/c3ccc(C)cc3)c2c1`: the IC50 in the data set with Plasmodium falciparum [1] is 1.13 µM; with Plasmodium falciparum [2] it was 2.28 µM; in the data set on HepG2 it was 9.92 µM. In addition, the Ratio IC50 with Plasmodium falciparum [3] came out at 2.48. Besides, the selectivity ratio in data set [4] was determined as 8.78. For the same compound, the result with Plasmodium berghei [5] was Active.

As for `COc1ccc2c3ccnc(C)c3n(CCNC(=O)OC/C=C/c3ccc(Br)cc3)c2c1`, the IC50 in the data set on Plasmodium falciparum [1] is 0.42 µM; with Plasmodium falciparum [2], 1.09 µM; in the data set on HepG2, 9.05 µM. Moreover, in the data set on Plasmodium falciparum [3], the Ratio IC50 was determined as 2.6. The selectivity ratio in data set [4] stood at 21.6. Moreover, the result with Plasmodium berghei [5] was Active.

As to `COc1ccc2c3ccnc(C)c3n(CCNC(=O)/C=C/c3ccc(Br)cc3)c2c1`, the IC50 with Plasmodium falciparum [1] came to 0.41 µM; in the data set with HepG2, 8.58 µM. Besides, the selectivity ratio in data set [4] was determined as 8.76. Besides, the outcome with Plasmodium berghei [5] was Active.

On to `COc1ccc2c3ccnc(C)c3n(CCNC(=O)OC/C=C/c3cccc(OC(F)(F)F)c3)c2c1`, for which the IC50 with Plasmodium falciparum [1] worked out at 0.68 µM; in the data set on Plasmodium falciparum [2], 1.78 µM; in the data set with HepG2, 8.71 µM. In addition, the Ratio IC50 in the data set on Plasmodium falciparum [3] came out at 2.62. For the same compound, the selectivity ratio in data set [4] came out at 12.8. In addition, in the data set on Plasmodium berghei [5], the result was Active.

As to `COc1ccc2c3ccnc(C)c3n(CCNC(=O)/C=C/c3cccc(OC(F)(F)F)c3)c2c1`, the IC50 worked out at 0.35 µM in the data set on Plasmodium falciparum [1], 2.11 µM in the data set on Plasmodium falciparum [2], 6.64 µM in the data set with HepG2 and 2.29 µM in the data set with Plasmodium berghei [6]. In addition, in the data set with Plasmodium falciparum [3], the Ratio IC50 turned out to be 6.03. For the same compound, the selectivity ratio in data set [4] is 16.2. In addition, in the data set with Plasmodium berghei [5], the result was Active.

With `COc1ccc2c3ccnc(C)c3n(CCNC(=O)/C=C/c3ccc(C)cc3)c2c1`, the values for the IC50 in the data set on Plasmodium falciparum [1], in the data set with Plasmodium falciparum [2] and with HepG2 were 0.98 µM, 0.64 µM and 8.16 µM, respectively. Besides, the Ratio IC50 with Plasmodium falciparum [3] was found to be 0.65. Also, the selectivity ratio in data set [4] is 6. In addition, the result in the data set with Plasmodium berghei [5] was Active.

For `COc1ccc2c3ccnc(C)c3n(CCNC(=O)OC/C=C/c3cccc(C(F)(F)F)c3)c2c1`, the IC50 with Plasmodium falciparum [1] came to 0.5 µM; in the data set on Plasmodium falciparum [2], 1.92 µM. Moreover, the Ratio IC50 with Plasmodium falciparum [3] was 3.84. Also, the result in the data set on Plasmodium berghei [5] was Active.

Turning to `CCCOc1ccc(/C=C/COC(=O)NCCn2c3cc(OC)ccc3c3ccnc(C)c32)cc1`, the IC50 in the data set with Plasmodium falciparum [1] was 0.39 µM; in the data set with Plasmodium falciparum [2], 0.83 µM; in the data set with HepG2 it was 9.96 µM. In addition, the Ratio IC50 in the data set on Plasmodium falciparum [3] turned out to be 2.13. In addition, the selectivity ratio in data set [4] turned out to be 19.9. In addition, the outcome in the data set with Plasmodium berghei [5] was Active.

`COc1ccc2c3ccnc(C)c3n(CCNC(=O)/C=C/c3cccc(Cl)c3)c2c1`: the IC50 with Plasmodium falciparum [1] amounted to 0.33 µM; with Plasmodium falciparum [2], 0.68 µM; with HepG2, 8.97 µM. The Ratio IC50 in the data set on Plasmodium falciparum [3] worked out at 2.06. Also, the selectivity ratio in data set [4] was found to be 25.6. In the data set on Plasmodium berghei [5], the outcome was Active.

For the compound `COc1ccc2c3ccnc(C)c3n(CCNC(=O)OC/C=C/c3ccccc3Cl)c2c1`, the IC50 with Plasmodium falciparum [1] worked out at 1.24 µM; in the data set with Plasmodium falciparum [2] it was 1.33 µM. In addition, in the data set with Plasmodium falciparum [3], the Ratio IC50 was found to be 1.07.

On to `CCCOc1ccc(/C=C/CNC(=O)NCCn2c3cc(OC)ccc3c3ccnc(C)c32)cc1`, for which the IC50 in the data set with Plasmodium falciparum [1] came out at 0.42 µM; in the data set on Plasmodium falciparum [2], 1.12 µM; with HepG2, 4.33 µM. The Ratio IC50 in the data set with Plasmodium falciparum [3] was 2.67. Further, in data set [4], the selectivity ratio worked out at 10.3. In addition, the outcome with Plasmodium berghei [5] was Active.

Take `COc1ccc2c3ccnc(C)c3n(CCNC(=O)OC/C=C/c3ccc(C(F)(F)F)cc3)c2c1`: the IC50 was found to be 0.79 µM with Plasmodium falciparum [1], 0.7 µM in the data set with Plasmodium falciparum [2] and 6.71 µM in the data set on HepG2. The Ratio IC50 in the data set on Plasmodium falciparum [3] was determined as 0.89. Further, the selectivity ratio in data set [4] was found to be 8.49. Further, the outcome with Plasmodium berghei [5] was Active.

Turning to `COc1ccc2c3ccnc(C)c3n(CCNC(=O)OC/C=C/c3ccc([N+](=O)[O-])cc3)c2c1`, the figures for the IC50 in the data set with Plasmodium falciparum [1] and in the data set on Plasmodium falciparum [2] were 0.36 µM and 0.33 µM, respectively. The Ratio IC50 in the data set with Plasmodium falciparum [3] came out at 0.92. Also, in the data set with Plasmodium berghei [5], the result was Active.

As to `COc1ccc2c3ccnc(C)c3n(CCNC(=O)NC/C=C/c3cccc(C(F)(F)F)c3)c2c1`, the IC50 worked out at 0.22 µM in the data set with Plasmodium falciparum [1], 1.07 µM in the data set with Plasmodium falciparum [2], 9.84 µM in the data set on HepG2 and 2.89 µM in the data set with Plasmodium berghei [6]. Further, in the data set on Plasmodium falciparum [3], the Ratio IC50 was 4.86. In addition, the selectivity ratio in data set [4] came to 44.7. The result in the data set on Plasmodium berghei [5] was Active.
